Assay results taken from article PMC5218480 (PLoS ONE, 2017).

Test system: MV-4-11 cells
Assay: Gene expression microarray analysis (Affymetrix PrimeView) and GSEA
Assay type: cell-based, human
Design: RFU PODN (11730768_x_at) / Fold change /veh PODN (11730768_x_at) / RFU LINC00158 (11744669_a_at) / Fold change /veh LINC00158 (11744669_a_at) / RFU DUSP10 (11751237_a_at) / Fold change /veh DUSP10 (11751237_a_at) / RFU ID3 (11757404_x_at) / Fold change /veh ID3 (11757404_x_at) / RFU PLEKHG5 (11737974_s_at) / Fold change /veh PLEKHG5 (11737974_s_at) / RFU LRRC4B (11730491_at) / Fold change /veh LRRC4B (11730491_at) / RFU GIMAP4 (11747438_a_at) / Fold change /veh GIMAP4 (11747438_a_at) / RFU KRT8 (11758183_x_at) / Fold change /veh KRT8 (11758183_x_at) / RFU CNN1 (11734310_a_at) / Fold change /veh CNN1 (11734310_a_at) / RFU VPS37D (11726825_at) / Fold change /veh VPS37D (11726825_at) / RFU C10orf10 (11716522_x_at) / Fold change /veh C10orf10 (11716522_x_at) / RFU KIR2DL2 /// KIR2DL4 /// KIR2DL5A /// KIR2DL5B /// KIR2DS1 /// KIR2DS2 /// KIR2DS3 /// KIR2DS4 /// KIR3DL3 /// KIR3DL3 /// KIR3DS1 (11738374_at) / Fold change /veh KIR2DL2 /// KIR2DL4 /// KIR2DL5A /// KIR2DL5B /// KIR2DS1 /// KIR2DS2 /// KIR2DS3 /// KIR2DS4 /// KIR3DL3 /// KIR3DL3 /// KIR3DS1 (11738374_at) / RFU C1QL1 (11718748_at) / Fold change /veh C1QL1 (11718748_at) / RFU TMPRSS4 (11747572_a_at) / Fold change /veh TMPRSS4 (11747572_a_at) / RFU HAMP (11756126_x_at) / Fold change /veh HAMP (11756126_x_at) / RFU RNFT2 (11725882_a_at) / Fold change /veh RNFT2 (11725882_a_at) / RFU NR4A2 (11747474_a_at) / Fold change /veh NR4A2 (11747474_a_at) / RFU ABCC12 (11746883_a_at) / Fold change /veh ABCC12 (11746883_a_at) / RFU TMEM136 (11760407_x_at) / Fold change /veh TMEM136 (11760407_x_at) / RFU CLDN22 /// WWC2 (11732394_at) / Fold change /veh CLDN22 /// WWC2 (11732394_at) / RFU HLA-DPB1 (11760878_x_at) / Fold change /veh HLA-DPB1 (11760878_x_at) / RFU SPINT1 (11716480_a_at) / Fold change /veh SPINT1 (11716480_a_at) / RFU GAP43 (11754022_s_at) / Fold change /veh GAP43 (11754022_s_at) / RFU A4GNT (11735810_at) / Fold change /veh A4GNT (11735810_at) / RFU PRB3 (11715151_x_at) / Fold change /veh PRB3 (11715151_x_at) / RFU TUBB4B (11761932_at) / Fold change /veh TUBB4B (11761932_at) / RFU CAPN14 (11732068_a_at) / Fold change /veh CAPN14 (11732068_a_at) / RFU TMCC2 (11721928_a_at) / Fold change /veh TMCC2 (11721928_a_at) / RFU IRGQ (11745062_a_at) / Fold change /veh IRGQ (11745062_a_at) / RFU FAM174B (11720279_a_at) / Fold change /veh FAM174B (11720279_a_at) / RFU TMPRSS4 (11748680_a_at) / Fold change /veh TMPRSS4 (11748680_a_at) / RFU FAM212B (11763350_a_at) / Fold change /veh FAM212B (11763350_a_at) / RFU PLEKHG5 (11743358_a_at) / Fold change /veh PLEKHG5 (11743358_a_at) / RFU ZSCAN30 (11745921_a_at) / Fold change /veh ZSCAN30 (11745921_a_at) / RFU CMKLR1 (11741424_a_at) / Fold change /veh CMKLR1 (11741424_a_at) / RFU LOC101060620 /// MAPK8IP1 (11723275_at) / Fold change /veh LOC101060620 /// MAPK8IP1 (11723275_at) / RFU SPTSSB (11747773_x_at) / Fold change /veh SPTSSB (11747773_x_at) / RFU PRSS12 (11739890_at) / Fold change /veh PRSS12 (11739890_at) / RFU BIN1 (11741810_x_at) / Fold change /veh BIN1 (11741810_x_at) / RFU WNT11 (11732464_a_at) / Fold change /veh WNT11 (11732464_a_at) / RFU C10orf10 (11716521_a_at) / Fold change /veh C10orf10 (11716521_a_at) / RFU C5orf56 (11738089_at) / Fold change /veh C5orf56 (11738089_at) / RFU CYB561 (11721691_x_at) / Fold change /veh CYB561 (11721691_x_at) / RFU ANKRD19P (11752326_a_at) / Fold change /veh ANKRD19P (11752326_a_at) / RFU OR2T12 /// OR2T33 /// OR2T8 (11738714_s_at) / Fold change /veh OR2T12 /// OR2T33 /// OR2T8 (11738714_s_at) / RFU VCAN (11748164_a_at) / Fold change /veh VCAN (11748164_a_at) / RFU JSRP1 (11732532_at) / Fold change /veh JSRP1 (11732532_at) / RFU KRTAP10-11 (11738290_x_at) / Fold change /veh KRTAP10-11 (11738290_x_at) / RFU MYO3A (11730013_a_at) / Fold change /veh MYO3A (11730013_a_at) / RFU EBF3 (11725865_a_at) / Fold change /veh EBF3 (11725865_a_at) / RFU CAMK2N1 (11719241_x_at) / Fold change /veh CAMK2N1 (11719241_x_at) / RFU C5orf56 (11738088_a_at) / Fold change /veh C5orf56 (11738088_a_at) / RFU OLFML3 (11715873_a_at) / Fold change /veh OLFML3 (11715873_a_at) / RFU LOC100653217 /// NTM (11731650_a_at) / Fold change /veh LOC100653217 /// NTM (11731650_a_at) / RFU MAPK11 (11762145_a_at) / Fold change /veh MAPK11 (11762145_a_at) / RFU FIZ1 (11724087_x_at) / Fold change /veh FIZ1 (11724087_x_at) / RFU OASL (11726364_x_at) / Fold change /veh OASL (11726364_x_at) / RFU SOX15 (11748057_x_at) / Fold change /veh SOX15 (11748057_x_at) / RFU CD79A (11719716_a_at) / Fold change /veh CD79A (11719716_a_at) / RFU HIST1H1D (11736915_at) / Fold change /veh HIST1H1D (11736915_at) / RFU CASKIN2 (11723855_a_at) / Fold change /veh CASKIN2 (11723855_a_at) / RFU LOC730098 (11760151_x_at) / Fold change /veh LOC730098 (11760151_x_at) / RFU OR4N2 (11742367_at) / Fold change /veh OR4N2 (11742367_at) / RFU PRRT2 (11749266_a_at) / Fold change /veh PRRT2 (11749266_a_at) / RFU SNX32 (11753110_a_at) / Fold change /veh SNX32 (11753110_a_at) / RFU CDHR5 (11726645_a_at) / Fold change /veh CDHR5 (11726645_a_at) / RFU RCAN1 (11760418_a_at) / Fold change /veh RCAN1 (11760418_a_at) / RFU FAM167A (11723789_a_at) / Fold change /veh FAM167A (11723789_a_at) / RFU FAM26E (11764081_at) / Fold change /veh FAM26E (11764081_at) / RFU ISYNA1 (11749810_s_at) / Fold change /veh ISYNA1 (11749810_s_at) / RFU ACY1 (11761880_at) / Fold change /veh ACY1 (11761880_at) / RFU 11764098_at / Fold change /veh 11764098_at / RFU SAMD14 (11745864_x_at) / Fold change /veh SAMD14 (11745864_x_at) / RFU NPB (11741838_a_at) / Fold change /veh NPB (11741838_a_at) / RFU TMPRSS6 (11731388_a_at) / Fold change /veh TMPRSS6 (11731388_a_at) / RFU KRTAP10-2 (11738614_at) / Fold change /veh KRTAP10-2 (11738614_at) / RFU ARHGAP8 /// PRR5-ARHGAP8 (11727945_x_at) / Fold change /veh ARHGAP8 /// PRR5-ARHGAP8 (11727945_x_at) / RFU KRTAP5-7 /// NADSYN1 (11734609_at) / Fold change /veh KRTAP5-7 /// NADSYN1 (11734609_at) / RFU RASL12 (11751679_a_at) / Fold change /veh RASL12 (11751679_a_at) / RFU CDKN2B (11736163_a_at) / Fold change /veh CDKN2B (11736163_a_at) / RFU PRF1 (11729649_at) / Fold change /veh PRF1 (11729649_at) / RFU, ZNF638 /// ZNF638-IT1 / Fold change vs veh, ZNF638 /// ZNF638-IT1 / RFU, PANK3 / Fold change vs veh, PANK3 / RFU, SH3YL1 / Fold change vs veh, SH3YL1 / RFU, ZEB2 / Fold change vs veh, ZEB2 / RFU, NRIP1 / Fold change vs veh, NRIP1 / RFU, PTTG1IP / Fold change vs veh, PTTG1IP / RFU, CAPN2 / Fold change vs veh, CAPN2 / RFU, MED14 / Fold change vs veh, MED14 / RFU, SNORA58 / Fold change vs veh, SNORA58 / RFU, C1orf63 / Fold change vs veh, C1orf63 / RFU, LRRFIP1 / Fold change vs veh, LRRFIP1 / RFU, NDUFAF7 / Fold change vs veh, NDUFAF7 / RFU, SLC12A2 / Fold change vs veh, SLC12A2 / RFU, IBTK / Fold change vs veh, IBTK / RFU, ESF1 / Fold change vs veh, ESF1 / Fold change vs veh, TMEM50B / RFU, TAOK1 / Fold change vs veh, TAOK1 / RFU, ACBD3 / Fold change vs veh, ACBD3 / RFU, TMA16 / Fold change vs veh, TMA16 / RFU, RWDD3 / Fold change vs veh, RWDD3 / RFU, BCAT1 / Fold change vs veh, BCAT1 / RFU, EDEM3 / Fold change vs veh, EDEM3 / RFU, TMEM33 / Fold change vs veh, TMEM33 / RFU, WDR75 / Fold change vs veh, WDR75 / RFU, AHCTF1 / Fold change vs veh, AHCTF1 / RFU, TFRC / Fold change vs veh, TFRC / RFU, ZDHHC17 / Fold change vs veh, ZDHHC17 / RFU, NOM1 / Fold change vs veh, NOM1 / RFU, ARL8B / Fold change vs veh, ARL8B / RFU, ZBTB11 / Fold change vs veh, ZBTB11 / RFU, TAMM41 / Fold change vs veh, TAMM41 / RFU, KIAA1704 /// LOC100996395 / Fold change vs veh, KIAA1704 /// LOC100996395 / RFU, ING1 / Fold change vs veh, ING1 / RFU, TRMT61B / Fold change vs veh, TRMT61B / RFU, FUBP3 / Fold change vs veh, FUBP3 / RFU, TP53 / Fold change vs veh, TP53 / RFU, TNKS2 / Fold change vs veh, TNKS2 / RFU, ZFP14 / Fold change vs veh, ZFP14 / RFU, ACTR2 / Fold change vs veh, ACTR2 / RFU, PPP3R1 / Fold change vs veh, PPP3R1 / RFU, PIK3R1 / Fold change vs veh, PIK3R1 / RFU, HNRNPA1 / Fold change vs veh, HNRNPA1 / RFU, RNF170 / Fold change vs veh, RNF170 / RFU, ZNF28 / Fold change vs veh, ZNF28 / RFU, RNGTT / Fold change vs veh, RNGTT / RFU, OGT / Fold change vs veh, OGT / RFU, BRD1 / Fold change vs veh, BRD1 / RFU, MARS / Fold change vs veh, MARS / RFU, ZNF655 / Fold change vs veh, ZNF655 / RFU, FAHD1 / Fold change vs veh, FAHD1 / RFU, BDP1 / Fold change vs veh, BDP1 / RFU, LRRCC1 / Fold change vs veh, LRRCC1 / RFU, ARID1A / Fold change vs veh, ARID1A / RFU, ZNF146 / Fold change vs veh, ZNF146 / RFU, ZNF330 / Fold change vs veh, ZNF330 / RFU, GPN3 / Fold change vs veh, GPN3 / RFU, C9orf123 / Fold change vs veh, C9orf123 / RFU, N4BP2L2 / Fold change vs veh, N4BP2L2 / RFU, ARFIP1 / Fold change vs veh, ARFIP1 / RFU, FAM179B / Fold change vs veh, FAM179B / RFU, BCL10 / Fold change vs veh, BCL10 / RFU, UHRF1BP1L / Fold change vs veh, UHRF1BP1L / RFU, BET1 / Fold change vs veh, BET1 / RFU, CNOT2 / Fold change vs veh, CNOT2 / RFU, ZNF268 / Fold change vs veh, ZNF268 / Fold change vs veh, ZNF507 / RFU, DGCR2 / Fold change vs veh, DGCR2 / RFU, WDSUB1 / Fold change vs veh, WDSUB1 / Fold change vs veh, HSP90B1 /// MIR3652 / RFU, ADSS / Fold change vs veh, ADSS / RFU, GK / Fold change vs veh, GK / RFU, ZNF148 / Fold change vs veh, ZNF148 / RFU, TAF9 / Fold change vs veh, TAF9 / RFU, SLC1A5 / Fold change vs veh, SLC1A5 / RFU, SLMO2 / Fold change vs veh, SLMO2 / RFU, ABCC4 / Fold change vs veh, ABCC4 / RFU, LOC101060439 /// RAP1B / Fold change vs veh, LOC101060439 /// RAP1B / RFU, RFX7 / Fold change vs veh, RFX7 / RFU, GTPBP10 / Fold change vs veh, GTPBP10 / RFU, CNEP1R1 / Fold change vs veh, CNEP1R1 / RFU, BIVM-ERCC5 /// ERCC5 / Fold change vs veh, BIVM-ERCC5 /// ERCC5 / RFU, ILF3 / Fold change vs veh, ILF3 / RFU 11762660_at / Fold change /veh 11762660_at / RFU VCAN (11757783_s_at) / Fold change /veh VCAN (11757783_s_at) / RFU DDX43 (11728927_at) / Fold change /veh DDX43 (11728927_at) / RFU KRT8 (11758188_x_at) / Fold change /veh KRT8 (11758188_x_at) / RFU NKD1 (11759106_at) / Fold change /veh NKD1 (11759106_at) / RFU SRD5A1 (11742802_a_at) / Fold change /veh SRD5A1 (11742802_a_at) / RFU TPSAB1 /// TPSB2 (11721975_s_at) / Fold change /veh TPSAB1 /// TPSB2 (11721975_s_at) / RFU GSTM3 (11746129_a_at) / Fold change /veh GSTM3 (11746129_a_at) / RFU IL23R (11737362_x_at) / Fold change /veh IL23R (11737362_x_at) / RFU TMEM51 (11727254_a_at) / Fold change /veh TMEM51 (11727254_a_at) / RFU PIWIL2 (11732686_x_at) / Fold change /veh PIWIL2 (11732686_x_at) / RFU ORM1 (11744905_x_at) / Fold change /veh ORM1 (11744905_x_at) / RFU CCDC152 (11743942_at) / Fold change /veh CCDC152 (11743942_at) / RFU ECM1 (11717891_a_at) / Fold change /veh ECM1 (11717891_a_at) / RFU IL23R (11748794_a_at) / Fold change /veh IL23R (11748794_a_at) / RFU TNFAIP8L3 (11732012_x_at) / Fold change /veh TNFAIP8L3 (11732012_x_at) / RFU MBOAT4 (11741988_at) / Fold change /veh MBOAT4 (11741988_at) / RFU 11764193_at / Fold change /veh 11764193_at / RFU TMEM53 (11763286_at) / Fold change /veh TMEM53 (11763286_at) / RFU MAGEB2 (11727129_at) / Fold change /veh MAGEB2 (11727129_at) / RFU TMEM200A (11744735_a_at) / Fold change /veh TMEM200A (11744735_a_at) / RFU CCDC152 (11751479_a_at) / Fold change /veh CCDC152 (11751479_a_at) / RFU FAM211A (11726209_a_at) / Fold change /veh FAM211A (11726209_a_at) / RFU RGS16 (11746705_a_at) / Fold change /veh RGS16 (11746705_a_at) / RFU VCAN (11755009_s_at) / Fold change /veh VCAN (11755009_s_at) / RFU RHOB (11743442_s_at) / Fold change /veh RHOB (11743442_s_at) / RFU RGS16 (11720943_a_at) / Fold change /veh RGS16 (11720943_a_at) / RFU RGS16 (11720944_at) / Fold change /veh RGS16 (11720944_at) / RFU, VPS4B / Fold change vs veh, VPS4B / RFU, CREB1 / Fold change vs veh, CREB1 / RFU, DNAJC13 / Fold change vs veh, DNAJC13 / RFU, GNAQ / Fold change vs veh, GNAQ / RFU, CDK5R1 / Fold change vs veh, CDK5R1 / RFU, ZRANB3 / Fold change vs veh, ZRANB3 / RFU, CUL4A / Fold change vs veh, CUL4A / RFU, CCNY / Fold change vs veh, CCNY / RFU, UFL1 / Fold change vs veh, UFL1 / RFU, COG3 / Fold change vs veh, COG3 / RFU, DIAPH2 / Fold change vs veh, DIAPH2 / RFU, SKA2 / Fold change vs veh, SKA2 / RFU, AFF3 / Fold change vs veh, AFF3 / RFU, LMF1 / Fold change vs veh, LMF1 / RFU, IPO11 / Fold change vs veh, IPO11 / RFU, DFFB / Fold change vs veh, DFFB / RFU, FOXP1 / Fold change vs veh, FOXP1 / RFU, CARD8 / Fold change vs veh, CARD8 / RFU, STRN3 / Fold change vs veh, STRN3 / RFU, ADK / Fold change vs veh, ADK / RFU, RASSF2 / Fold change vs veh, RASSF2 / RFU, WIPF1 / Fold change vs veh, WIPF1 / RFU, LARP1B / Fold change vs veh, LARP1B / RFU, RASA1 / Fold change vs veh, RASA1 / RFU, RB1 / Fold change vs veh, RB1 / RFU, PPFIA1 / Fold change vs veh, PPFIA1 / RFU, MAT2A / Fold change vs veh, MAT2A / RFU, CCT5 / Fold change vs veh, CCT5 / RFU, WDR92 / Fold change vs veh, WDR92 / RFU, CUX1 / Fold change vs veh, CUX1 / RFU, TTC7A / Fold change vs veh, TTC7A / RFU, TMEM135 / Fold change vs veh, TMEM135 / RFU, DEPTOR / Fold change vs veh, DEPTOR / RFU, CPM / Fold change vs veh, CPM / RFU, DNAJB6 / Fold change vs veh, DNAJB6 / RFU, CACNA2D3 / Fold change vs veh, CACNA2D3 / RFU, DTX4 / Fold change vs veh, DTX4 / RFU, TFCP2 / Fold change vs veh, TFCP2 / RFU, GMCL1 /// GMCL1P1 / Fold change vs veh, GMCL1 /// GMCL1P1 / RFU, AEBP2 / Fold change vs veh, AEBP2 / RFU, SNHG1 /// SNORD22 /// SNORD25 /// SNORD26 /// SNORD27 /// SNORD28 /// SNORD29 /// SNORD31 / Fold change vs veh, SNHG1 /// SNORD22 /// SNORD25 /// SNORD26 /// SNORD27 /// SNORD28 /// SNORD29 /// SNORD31 / Fold change (Aza/veh), C12orf56 (ProbeSet 11735607_a_at) / Fold change (ACY-1035/veh), C12orf56 (ProbeSet 11735607_a_at) / Fold change (Aza/veh), FGFR1OP (ProbeSet 11751329_s_at) / Fold change (ACY-1035/veh), FGFR1OP (ProbeSet 11751329_s_at) / Fold change (Aza/veh), VPS36 (ProbeSet 11739960_a_at) / Fold change (ACY-1035/veh), VPS36 (ProbeSet 11739960_a_at) / RFU SYPL1 (11715823_x_at) / Fold change /veh SYPL1 (11715823_x_at) / RFU IGFBP7 (11715501_s_at) / Fold change /veh IGFBP7 (11715501_s_at) / RFU REEP3 (11722064_at) / Fold change /veh REEP3 (11722064_at) / RFU IGLL1 (11728026_x_at) / Fold change /veh IGLL1 (11728026_x_at): dose or concentration left out as unconfirmed
Settings: ProbeSet 11731583_a_at; LIST D

Nc1ncn([C@@H]2O[C@H](CO)[C@@H](O)[C@H]2O)c(=O)n1 [azacitidine]
Fold change vs veh, LARP1B: 0.75
